Reference: PubChem BioAssay (NCI)
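Abbreviation: GI50, concentration required for 50% inhibition of growth. At the TGI there is no net growth.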

How the values were obtained:
Assay in all cases: NCI tumour cell line growth inhibition, 384-well format
NCI-H226 lung = tested on: NCI-H226 lung
NCI-H23 lung = tested on: NCI-H23 lung
NCI-H322M lung = tested on: NCI-H322M lung
NCI-H460 NSCLC = tested on: NCI-H460 NSCLC
NCI-H522 lung = tested on: NCI-H522 lung
NCI/ADR-RES ovarian = tested on: NCI/ADR-RES ovarian
OVCAR-3 ovarian = tested on: OVCAR-3 ovarian
OVCAR-4 ovarian = tested on: OVCAR-4 ovarian
OVCAR-5 ovarian = tested on: OVCAR-5 ovarian
OVCAR-8 ovarian = tested on: OVCAR-8 ovarian
PC-3 prostate = tested on: PC-3 prostate
RPMI-8226 leukemia = tested on: RPMI-8226 leukemia
RXF 393 renal = tested on: RXF 393 renal
SF-268 CNS = tested on: SF-268 CNS
SF-295 CNS = tested on: SF-295 CNS
SF-539 CNS = tested on: SF-539 CNS
SK-MEL-28 melanoma = tested on: SK-MEL-28 melanoma
SK-MEL-5 melanoma = tested on: SK-MEL-5 melanoma
SK-OV-3 ovarian = tested on: SK-OV-3 ovarian
SN12C renal = tested on: SN12C renal
SNB-19 CNS = tested on: SNB-19 CNS
SNB-75 CNS = tested on: SNB-75 CNS
SW-620 colon = tested on: SW-620 colon
T-47D breast = tested on: T-47D breast
TK-10 renal = tested on: TK-10 renal
U251 glioblastoma = tested on: U251 glioblastoma
UACC-257 melanoma = tested on: UACC-257 melanoma
UACC-62 melanoma = tested on: UACC-62 melanoma
UO-31 renal = tested on: UO-31 renal

SMILES: C1=C/COCc2cc(ccc2OCCN2CCCC2)Nc2nccc(n2)-c2ccc(o2)COC/1
- GI50 (NCI-H226 lung): 1.21 µM
- TGI (NCI-H226 lung): 4.18 µM
- GI50 (NCI-H23 lung): 0.879 µM
- TGI (NCI-H23 lung): 2.19 µM
- GI50 (NCI-H322M lung): 1.32 µM
- TGI (NCI-H322M lung): 3.51 µM
- GI50 (NCI-H460 NSCLC): 0.792 µM
- TGI (NCI-H460 NSCLC): 2.27 µM
- GI50 (NCI-H522 lung): 1.09 µM
- TGI (NCI-H522 lung): 2.4 µM
- GI50 (NCI/ADR-RES ovarian): 1.97 µM
- TGI (NCI/ADR-RES ovarian): 4 µM
- GI50 (OVCAR-3 ovarian): 1.33 µM
- TGI (OVCAR-3 ovarian): 3.23 µM
- GI50 (OVCAR-4 ovarian): 2 µM
- TGI (OVCAR-4 ovarian): 5.1 µM
- GI50 (OVCAR-5 ovarian): 0.59 µM
- TGI (OVCAR-5 ovarian): 4.1 µM
- GI50 (OVCAR-8 ovarian): 1.68 µM
- TGI (OVCAR-8 ovarian): 4.27 µM
- GI50 (PC-3 prostate): 1.49 µM
- TGI (PC-3 prostate): 4.88 µM
- GI50 (RPMI-8226 leukemia): 1.79 µM
- TGI (RPMI-8226 leukemia): 3.22 µM
- GI50 (RXF 393 renal): 1.25 µM
- TGI (RXF 393 renal): 2.57 µM
- GI50 (SF-268 CNS): 0.256 µM
- TGI (SF-268 CNS): 0.964 µM
- GI50 (SF-295 CNS): 2.05 µM
- TGI (SF-295 CNS): 4.49 µM
- GI50 (SF-539 CNS): 1.61 µM
- TGI (SF-539 CNS): 3 µM
- GI50 (SK-MEL-28 melanoma): 1.43 µM
- TGI (SK-MEL-28 melanoma): 3 µM
- GI50 (SK-MEL-5 melanoma): 1.03 µM
- TGI (SK-MEL-5 melanoma): 2.26 µM
- GI50 (SK-OV-3 ovarian): 0.758 µM
- TGI (SK-OV-3 ovarian): 2.88 µM
- GI50 (SN12C renal): 0.587 µM
- TGI (SN12C renal): 1.89 µM
- GI50 (SNB-19 CNS): 2.58 µM
- TGI (SNB-19 CNS): 10.6 µM
- GI50 (SNB-75 CNS): 1.06 µM
- TGI (SNB-75 CNS): 2.27 µM
- GI50 (SW-620 colon): 2.44 µM
- TGI (SW-620 colon): 8.15 µM
- GI50 (T-47D breast): 0.613 µM
- TGI (T-47D breast): 2.43 µM
- GI50 (TK-10 renal): 2.39 µM
- TGI (TK-10 renal): 9.4 µM
- GI50 (U251 glioblastoma): 1.92 µM
- TGI (U251 glioblastoma): 4.79 µM
- GI50 (UACC-257 melanoma): 1.46 µM
- TGI (UACC-257 melanoma): 2.8 µM
- GI50 (UACC-62 melanoma): 0.798 µM
- TGI (UACC-62 melanoma): 2.06 µM
- GI50 (UO-31 renal): 1.64 µM
- TGI (UO-31 renal): 3.85 µM
